{"source": "paper PMC6853638", "about": "“TMC1 is an essential component of a leak channel that modulates tonotopy and excitability of auditory hair cells in mice” (eLife, 2019)", "key": {"MET channel [1]": {"molecular_target": "T1, MET channel (Mus musculus, UniProt Q8R4P5)", "T1 construct": "the basilar membrane with hair cells was acutely dissected from neonatal mice; endogenous in cells; host or cells: outer hair cells of acutely dissected neonatal mouse cochlea", "T1 sequence (Q4KL25 whole entry partner, one chain of several)": "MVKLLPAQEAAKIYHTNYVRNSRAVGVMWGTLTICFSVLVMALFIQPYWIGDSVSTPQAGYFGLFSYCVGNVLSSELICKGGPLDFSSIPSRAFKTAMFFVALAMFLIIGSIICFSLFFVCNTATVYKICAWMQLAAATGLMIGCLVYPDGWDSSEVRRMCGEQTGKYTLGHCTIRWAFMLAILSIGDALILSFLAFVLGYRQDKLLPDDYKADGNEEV", "T1 sequence (Q8K467 29-153 partner, one chain of several)": "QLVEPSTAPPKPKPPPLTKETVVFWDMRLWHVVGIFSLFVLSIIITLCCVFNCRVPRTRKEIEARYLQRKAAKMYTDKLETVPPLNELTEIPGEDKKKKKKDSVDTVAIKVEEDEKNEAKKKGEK", "T1 sequence (Q9Z309 whole entry partner, one chain of several)": "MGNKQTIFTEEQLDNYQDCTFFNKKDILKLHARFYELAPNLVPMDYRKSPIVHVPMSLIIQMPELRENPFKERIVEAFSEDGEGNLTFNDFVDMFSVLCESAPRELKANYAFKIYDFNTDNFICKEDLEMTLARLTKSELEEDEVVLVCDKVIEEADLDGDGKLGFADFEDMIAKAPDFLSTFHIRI", "assay": "MET current (IMET) inhibition by blockers, whole-cell voltage clamp of OHCs with glass-probe hair-bundle deflection", "format": "cell-based", "description": "All experiments were performed at room temperature (20–25°C). Briefly, the basilar membrane with hair cells was acutely dissected from neonatal mice. […] The acutely isolated or cultured basilar membrane was used for electrophysiological recording within 1 h. […] Hair cells were recorded with a patch-clamp amplifier (EPC 10 USB and Patchmaster software, HEKA Elektronik, Lambrecht/Pfalz, Germany).\n(§1) The sampling rate was 1 kHz for leak current recording, 50 kHz for the IV protocol and current-clamp recording, and 100 kHz for unitary channel recording. The voltage-clamp used a –70 mV holding potential, and the current-clamp was held at 0 pA. Only recordings with a current baseline <20 pA in NMDG solution were used for statistical analysis.\nThe hair bundle was deflected by two types of mechanical stimulus, fluid jet and glass probe. […] In brief, a 40 Hz sinusoidal wave stimulus was delivered by a 27-mm-diameter piezoelectric disc driven by a home-made piezo amplifier pipette with a tip diameter of 3–5 μm positioned 5–10 μm from the hair bundle to evoke maximum MET currents. […] The actuator was driven with voltage steps that were low-pass filtered at 10 KHz. To avoid bundle damage caused by overstimulation, the glass probe was shaped to have a slightly smaller diameter than the hair bundles, and the stimulation distance was 800 nm for macroscopic current and 100 nm for unitary channel recording. For hair bundle removal, a pipette with 1 μm diameter tip was used to suck away the hair bundles of the target OHCs. The hair-bundle-removed OHCs with good condition were further recorded. Examined by a fluid-jet stimulation, the OHCs without obvious MET current were further measured for the leak current.\n(§2) Dose-inhibition curves were fitted with a Hill equation: Ix/Imax=X^h/(K^h+X^h))\n(§3) Where K is the half-inhibition dose (IC50) and h is the Hill slope. Imax is the maximal current in control condition."}, "leak current in OHCs": {"molecular_target": "T2, leak current in OHCs (Mus musculus, UniProt Q8R4P5)", "T2 construct": "the basilar membrane with hair cells was acutely dissected from neonatal mice; endogenous in cells; host or cells: outer hair cells of acutely dissected neonatal mouse cochlea", "T2 sequence (Q8R4P5 1-757)": "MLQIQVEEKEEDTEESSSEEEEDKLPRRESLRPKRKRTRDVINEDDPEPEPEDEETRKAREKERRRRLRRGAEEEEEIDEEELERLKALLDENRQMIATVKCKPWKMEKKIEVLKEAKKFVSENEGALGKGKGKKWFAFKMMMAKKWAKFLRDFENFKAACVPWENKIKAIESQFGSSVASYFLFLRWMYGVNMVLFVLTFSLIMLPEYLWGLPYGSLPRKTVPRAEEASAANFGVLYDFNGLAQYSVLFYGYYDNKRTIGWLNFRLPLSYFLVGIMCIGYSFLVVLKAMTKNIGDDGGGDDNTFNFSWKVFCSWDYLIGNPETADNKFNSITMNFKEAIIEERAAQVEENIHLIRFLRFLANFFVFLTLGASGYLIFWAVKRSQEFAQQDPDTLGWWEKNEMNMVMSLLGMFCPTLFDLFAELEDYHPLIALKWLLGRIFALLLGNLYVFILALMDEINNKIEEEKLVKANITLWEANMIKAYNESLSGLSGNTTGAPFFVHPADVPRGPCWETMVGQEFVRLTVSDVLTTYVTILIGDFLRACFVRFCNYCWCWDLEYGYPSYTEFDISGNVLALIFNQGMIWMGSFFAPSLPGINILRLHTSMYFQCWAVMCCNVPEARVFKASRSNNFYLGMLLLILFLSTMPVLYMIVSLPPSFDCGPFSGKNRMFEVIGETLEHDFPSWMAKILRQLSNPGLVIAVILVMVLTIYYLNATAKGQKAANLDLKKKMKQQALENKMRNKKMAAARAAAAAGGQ", "assay": "Ion-permeation tests of the leak current (ion substitution in the external solution)", "format": "cell-based", "details": "150 mM NaCl partially or completely replaced (150 mM CsCl; 75 mM Ca2+); compared with Na+", "description": "(§4) Hair cells were recorded using whole-cell voltage or current clamp as previously described ([Xiong et al., 2012]). All experiments were performed at room temperature (20–25°C). Briefly, the basilar membrane with hair cells was acutely dissected from neonatal mice. […] The acutely isolated or cultured basilar membrane was used for electrophysiological recording within 1 h. Hair cells were imaged under an upright microscope (BX51WI, Olympus, Tokyo, Japan) with a 60 × water immersion objective and an sCMOS camera (ORCA Flash4.0, Hamamatsu, Hamamatsu City, Japan) controlled by MicroManager 1.6 software ([Edelstein et al., 2010]). Patch pipettes were made from borosilicate glass capillaries (BF150-117-10, Sutter Instrument Co., Novato, CA) with a pipette puller (P-2000, Sutter) and polished on a microforge (MF-830, Narishige, Tokyo, Japan) to resistances of 4–6 M'Ω. Intracellular solution contained (in mM): 140 CsCl, 1 MgCl2, 0.1 EGTA, 2 Mg-ATP, 0.3 Na-GTP, and 10 H-HEPES, pH 7.2), except when CsCl was replaced with KCl in current-clamp. Hair cells were recorded with a patch-clamp amplifier (EPC 10 USB and Patchmaster software, HEKA Elektronik, Lambrecht/Pfalz, Germany).\n(§5) In Figure 6A, LiCl and CsCl were 150 mM, completely substituting for NaCl."}, "[2]": {"molecular_target": "T3, TMC1-mediated leak conductance (Mus musculus, UniProt Q8R4P5)", "T3 sequence (Q8R4P5 1-757)": "T2 sequence (Q8R4P5 1-757)", "assay": "Background/leak current (IBG) inhibition by blockers, whole-cell voltage clamp of OHCs", "format": "cell-based", "description": "as §4, with “Intracellular solution contained (in mM): 140 CsCl, 1 MgCl2, 0.1 EGTA, 2 Mg-ATP, 0.3 Na-GTP, and 10 H-HEPES, pH 7.2), except when CsCl was replaced with KCl in current-clamp.” left out\nas §1, §2, §3"}, "leak current": {"molecular_target": "T4, leak current (Mus musculus, UniProt Q8R4P5)", "T4 construct": "the basilar membrane with hair cells was acutely dissected from neonatal mice; endogenous in cells; host or cells: outer hair cells of acutely dissected neonatal mouse cochlea", "T4 sequence (Q8R4P5 1-757)": "T2 sequence (Q8R4P5 1-757)", "assay": "Background leak current in graded Ca2+ and Na+ concentrations (wild-type and Tmc1-knockout OHCs)", "format": "cell-based", "details": "35 mM [Ca2+]o", "description": "as §4, §5\nThe osmotic pressure of each solution was re-adjusted to 300–320 mOsm/kg with sucrose, and the pH was adjusted to 7.4."}, "MET channel [3]": {"molecular_target": "T1, MET channel", "assay": "MET current in graded Ca2+ and Na+ concentrations", "format": "cell-based", "details": "wild-type OHCs", "description": "as §4, with “Intracellular solution contained (in mM): 140 CsCl, 1 MgCl2, 0.1 EGTA, 2 Mg-ATP, 0.3 Na-GTP, and 10 H-HEPES, pH 7.2), except when CsCl was replaced with KCl in current-clamp.” left out\nThe hair bundle was deflected by two types of mechanical stimulus, fluid jet and glass probe. […] The hair-bundle-removed OHCs with good condition were further recorded. Examined by a fluid-jet stimulation, the OHCs without obvious MET current were further measured for the leak current. […]"}, "MET channel [4]": {"molecular_target": "T1, MET channel", "assay": "Location-specific macroscopic MET current in OHCs, fluid-jet stimulation", "format": "cell-based", "details": "wild-type OHCs in 35 mM Ca2+", "description": "as §4\n(§6) For single-channel recordings, we followed published procedures ([Ricci et al., 2003]; [Xiong et al., 2012]). The intracellular solution was the same for macroscopic and microscopic current recording. […] After bundle destruction, fresh external solution was given to re-establish the corresponding extracellular ionic environment. […] Only traces with obvious single-channel events were included for analyzing.\nThe sampling rate was 1 kHz for leak current recording, 50 kHz for the IV protocol and current-clamp recording, and 100 kHz for unitary channel recording. […]\nThe hair bundle was deflected by two types of mechanical stimulus, fluid jet and glass probe. […] The hair-bundle-removed OHCs with good condition were further recorded. Examined by a fluid-jet stimulation, the OHCs without obvious MET current were further measured for the leak current."}, "MET channel [5]": {"system": "MET channel", "assay": "Unitary MET channel current recording in OHCs", "format": "cell-based, mouse", "from_the_text": "as §6, §1\nThe hair bundle was deflected by two types of mechanical stimulus, fluid jet and glass probe. The fluid jet stimulation was performed as described previously ([Beurg et al., 2014]). In brief, a 40 Hz sinusoidal wave stimulus was delivered by a 27-mm-diameter piezoelectric disc driven by a home-made piezo amplifier pipette with a tip diameter of 3–5 μm positioned 5–10 μm from the hair bundle to evoke maximum MET currents. […] The actuator was driven with voltage steps that were low-pass filtered at 10 KHz. To avoid bundle damage caused by overstimulation, the glass probe was shaped to have a slightly smaller diameter than the hair bundles, and the stimulation distance was 800 nm for macroscopic current and 100 nm for unitary channel recording. For hair bundle removal, a pipette with 1 μm diameter tip was used to suck away the hair bundles of the target OHCs. The hair-bundle-removed OHCs with good condition were further recorded. Examined by a fluid-jet stimulation, the OHCs without obvious MET current were further measured for the leak current."}, "MET channel [6]": {"system": "MET channel", "parameters": "method as in Kim and Fettiplace, 2013", "details": "P5 apical OHCs; ref Kim and Fettiplace, 2013; cited from earlier work"}}, "note": "Several values for one entry are separate records, joined by “and”; a condition that tells them apart may be missing. Equal values may be shown once.", "data": [{"smiles": "[Gd+3]", "note": "[Gd3+]", "values": [{"measurement": "MET (normalized), first block c1-c15", "setting": "MET channel [1]; Gd3+ 4000", "result": "0.01958 and 0.0181 and 0.03486 and 0.01803 and 0.02788 and 0.02096 and 0.03255"}]}, {"smiles": "[Cl-].[Cs+]", "note": "[Cs^+, CsCl]", "values": [{"measurement": "size of ILeak conducted by the substituted cation", "setting": "leak current in OHCs", "result": "slightly larger"}]}, {"smiles": "N=C(N)NC(=O)c1nc(Cl)c(N)nc1N", "note": "[Amiloride, amiloride]", "values": [{"measurement": "effect on the leak current compared with the MET current", "setting": "[2]; graded concentrations", "result": "affected the leak current, albeit at higher concentrations than the MET current"}]}, {"smiles": "[Cl][La]([Cl])[Cl]", "note": "[La^3+, LaCl3]", "values": [{"measurement": "IC50", "setting": "MET channel [1]; OHCs, 800 nm step deflection, […] Ca2+, holding −70 mV, Hill fit, read-out: IC50, IMET", "result": 259, "unit": "µM"}, {"measurement": "IC50", "setting": "[2]; OHCs, […] Ca2+, holding −70 mV, Hill fit, read-out: IC50, IBG (leak conductance)", "result": 531, "unit": "µM"}]}, {"smiles": "[Ca+2].[Cl-].[Cl-]", "note": "[Ca^2+, CaCl2]", "values": [{"measurement": "size of ILeak conducted by the substituted cation", "setting": "leak current in OHCs", "result": "robustly blocked"}, {"measurement": "block of the leak current", "setting": "leak current", "result": "sufficient to block the leak current to an extent similar to TMC1 removal in OHCs"}, {"measurement": "[Ca2+]o after which the MET current reached a plateau, sufficient to block the leak current", "setting": "MET channel [3]", "result": "> 10", "unit": "mM"}, {"measurement": "macroscopic IMET", "setting": "MET channel [4]; location D05, holding −70 mV", "result": "–369 ± 13 pA"}, {"measurement": "macroscopic IMET", "setting": "MET channel [4]; location D40, holding −70 mV", "result": "–384 ± 30 pA"}, {"measurement": "macroscopic IMET", "setting": "MET channel [4]; location D60, holding −70 mV", "result": "–461 ± 31 pA"}, {"measurement": "unitary MET channel current", "setting": "MET channel [5]; 35 mM Ca2+, location D05, holding −70 mV", "result": "–4.7 ± 0.1 pA"}, {"measurement": "unitary MET channel current", "setting": "MET channel [5]; 35 mM Ca2+, location D20, holding −70 mV", "result": "–4.8 ± 0.1 pA"}, {"measurement": "unitary MET channel current", "setting": "MET channel [5]; 35 mM Ca2+, location D60, holding −70 mV", "result": "–4.9 ± 0.1 pA"}, {"measurement": "unitary MET channel current", "setting": "MET channel [5]; 35 mM [Ca2+]o, both low-frequency and high-frequency OHCs", "result": "~ 5 pA"}, {"measurement": "Ca2+ permeability of the MET channel, PCa/PCs", "setting": "MET channel [6]", "result": "around six"}]}]}
